# Experimental data reported in patent publication US8765746B2 (Millennium Pharmaceuticals, Inc., priority 2010, dated 2014).
# How the values were obtained:
# Type in all cases: biochemical
# PI3Kalpha = molecular target: T1, PI3Kalpha (Homo sapiens, UniProt P42336); assay: Human PI3Kα enzyme assay (HTRF); conditions: for inhibition at 1.11 µM: read-out: PI3Kalpha % inh; for PI3Kalpha % inh: at 1.11 μM
# T1 construct: His (N); host or cells: SF9 insect cells (baculovirus)
# Outline: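 His-tagged p110α co-expressed with p85 in Sf9 cells was reacted for 30 min at room temperature in pH 7.00 Hepes buffer with 10 mM MgCl2. Addition solutions held 25 uM ATP, 3.5 uM di-C8 PI(4,5)P2 and 0.4875 nM enzyme. The reaction was quenched with EDTA/biotin-PIP3 and detected by HTRF (GST-GRP-1 PH domain, streptavidin-XL, Eu anti-GST) after 1 h.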
# PI3Kbeta = molecular target: T2, PI3Kbeta (Homo sapiens, UniProt P42338); assay: Human PI3K beta enzyme assay (HTRF, as for PI3K alpha); conditions: for inhibition at 1.11 µM: read-out: PI3Kbeta % inh; for IC50: read-out: IC50 (inhibit PI3Kbeta); for inhibition at 1.11 µM / PI3Kbeta % inh: at 1.11 μM
# T2 construct: His (N); host or cells: SF9 insect cells (baculovirus)
# T2 sequence (P42338 whole entry): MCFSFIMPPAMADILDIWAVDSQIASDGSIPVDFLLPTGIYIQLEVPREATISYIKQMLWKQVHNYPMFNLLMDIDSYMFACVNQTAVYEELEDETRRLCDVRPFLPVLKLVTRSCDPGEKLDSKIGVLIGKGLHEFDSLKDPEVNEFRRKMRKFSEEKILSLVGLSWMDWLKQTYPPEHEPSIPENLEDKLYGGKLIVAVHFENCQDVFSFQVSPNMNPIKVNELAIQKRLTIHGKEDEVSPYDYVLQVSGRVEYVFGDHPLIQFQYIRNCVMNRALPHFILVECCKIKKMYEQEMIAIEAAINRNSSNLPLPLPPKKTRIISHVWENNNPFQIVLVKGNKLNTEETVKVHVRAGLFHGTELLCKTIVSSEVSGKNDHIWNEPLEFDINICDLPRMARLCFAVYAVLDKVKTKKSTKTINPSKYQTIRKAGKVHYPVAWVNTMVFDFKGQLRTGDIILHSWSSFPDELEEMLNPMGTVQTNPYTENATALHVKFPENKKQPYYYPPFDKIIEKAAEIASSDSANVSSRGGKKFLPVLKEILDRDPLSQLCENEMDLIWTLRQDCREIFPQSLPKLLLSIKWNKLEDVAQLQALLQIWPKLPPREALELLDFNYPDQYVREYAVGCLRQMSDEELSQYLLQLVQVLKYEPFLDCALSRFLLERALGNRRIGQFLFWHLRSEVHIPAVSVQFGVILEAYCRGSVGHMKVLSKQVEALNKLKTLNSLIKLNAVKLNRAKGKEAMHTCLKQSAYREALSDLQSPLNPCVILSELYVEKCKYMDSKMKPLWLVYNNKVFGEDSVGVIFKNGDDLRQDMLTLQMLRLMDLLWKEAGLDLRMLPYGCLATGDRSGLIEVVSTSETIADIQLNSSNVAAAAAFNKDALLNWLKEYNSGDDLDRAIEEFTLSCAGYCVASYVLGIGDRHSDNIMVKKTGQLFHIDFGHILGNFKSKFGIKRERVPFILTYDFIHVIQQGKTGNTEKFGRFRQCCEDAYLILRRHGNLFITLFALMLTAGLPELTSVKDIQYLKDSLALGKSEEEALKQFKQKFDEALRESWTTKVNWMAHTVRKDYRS
# T2 sequence (P27986 whole entry partner): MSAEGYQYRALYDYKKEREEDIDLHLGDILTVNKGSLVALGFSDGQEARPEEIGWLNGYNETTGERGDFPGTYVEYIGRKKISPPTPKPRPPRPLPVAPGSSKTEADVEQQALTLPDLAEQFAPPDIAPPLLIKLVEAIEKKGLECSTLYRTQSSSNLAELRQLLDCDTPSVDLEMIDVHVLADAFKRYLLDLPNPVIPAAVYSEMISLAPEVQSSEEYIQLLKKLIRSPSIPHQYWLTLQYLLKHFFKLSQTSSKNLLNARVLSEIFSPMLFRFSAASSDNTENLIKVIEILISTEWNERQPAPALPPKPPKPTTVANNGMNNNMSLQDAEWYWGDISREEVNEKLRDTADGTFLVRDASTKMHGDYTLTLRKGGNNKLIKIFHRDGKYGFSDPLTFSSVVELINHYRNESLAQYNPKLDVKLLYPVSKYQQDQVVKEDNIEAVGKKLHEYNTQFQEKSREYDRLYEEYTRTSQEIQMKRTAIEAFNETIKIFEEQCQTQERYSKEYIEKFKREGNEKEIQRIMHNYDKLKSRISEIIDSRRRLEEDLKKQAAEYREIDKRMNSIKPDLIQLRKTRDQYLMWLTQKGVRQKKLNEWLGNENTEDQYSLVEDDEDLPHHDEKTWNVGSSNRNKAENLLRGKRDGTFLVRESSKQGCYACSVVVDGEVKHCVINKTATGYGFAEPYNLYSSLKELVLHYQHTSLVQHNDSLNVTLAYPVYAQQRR
# Outline: (§1)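 N-His p110β/δ co-expressed with untagged p85 in Sf9, p110γ alone. Enzyme 5.25 nM (β), 0.75 nM (δ), 5 nM (γ), with ATP 25 uM and di-C8 PI(4,5)P2 3.5 uM (added-solution levels), pH 7.00, 30 min RT. HTRF read-out: biotin-PIP3, GST-GRP-1 PH domain, Eu anti-GST, streptavidin-XL.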
# PI3Kgamma = molecular target: T3, PI3Kgamma (Homo sapiens, UniProt P48736); assay: Human PI3K gamma enzyme assay (HTRF, as for PI3K alpha); conditions: for inhibition at 1.11 µM: read-out: PI3Kgamma % inh; for PI3Kgamma % inh: at 1.11 μM
# T3 construct: His (N); host or cells: SF9 insect cells (baculovirus)
# T3 sequence (P48736 whole entry): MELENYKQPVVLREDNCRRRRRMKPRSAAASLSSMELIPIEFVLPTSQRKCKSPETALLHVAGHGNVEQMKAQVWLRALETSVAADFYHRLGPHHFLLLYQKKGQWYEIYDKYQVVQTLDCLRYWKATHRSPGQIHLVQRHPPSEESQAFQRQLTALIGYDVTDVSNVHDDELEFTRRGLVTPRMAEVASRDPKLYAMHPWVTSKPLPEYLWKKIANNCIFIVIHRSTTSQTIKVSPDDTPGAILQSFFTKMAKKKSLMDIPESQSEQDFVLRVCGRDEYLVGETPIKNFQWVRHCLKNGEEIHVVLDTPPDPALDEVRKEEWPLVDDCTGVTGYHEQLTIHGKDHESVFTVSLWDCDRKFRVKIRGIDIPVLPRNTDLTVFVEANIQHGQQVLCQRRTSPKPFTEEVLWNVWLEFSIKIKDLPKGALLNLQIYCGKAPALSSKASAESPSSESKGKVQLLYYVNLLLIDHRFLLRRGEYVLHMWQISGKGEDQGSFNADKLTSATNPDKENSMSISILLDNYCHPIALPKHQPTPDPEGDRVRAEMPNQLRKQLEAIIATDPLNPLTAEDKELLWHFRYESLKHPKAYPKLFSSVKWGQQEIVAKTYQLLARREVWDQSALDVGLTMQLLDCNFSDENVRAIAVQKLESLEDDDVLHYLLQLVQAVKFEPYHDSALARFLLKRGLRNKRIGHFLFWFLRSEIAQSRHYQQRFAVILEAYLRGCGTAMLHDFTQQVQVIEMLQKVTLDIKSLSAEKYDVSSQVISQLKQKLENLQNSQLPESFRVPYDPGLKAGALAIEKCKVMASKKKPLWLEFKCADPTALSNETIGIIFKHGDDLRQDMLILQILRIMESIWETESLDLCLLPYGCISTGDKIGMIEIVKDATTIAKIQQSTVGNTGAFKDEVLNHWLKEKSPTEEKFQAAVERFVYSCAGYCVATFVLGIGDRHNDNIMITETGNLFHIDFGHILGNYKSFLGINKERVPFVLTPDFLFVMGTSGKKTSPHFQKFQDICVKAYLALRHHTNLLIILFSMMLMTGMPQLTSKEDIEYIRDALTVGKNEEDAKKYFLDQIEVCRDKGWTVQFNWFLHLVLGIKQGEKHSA
# Outline: as §1
# PI3Kdelta = molecular target: T4, PI3Kdelta (Homo sapiens, UniProt O00329); assay: Human PI3K delta enzyme assay (HTRF, as for PI3K alpha); conditions: for inhibition at 1.11 µM: read-out: PI3Kdelta % inh; for PI3Kdelta % inh: at 1.11 μM
# T4 construct: His (N); host or cells: SF9 insect cells (baculovirus)
# T4 sequence (O00329 whole entry): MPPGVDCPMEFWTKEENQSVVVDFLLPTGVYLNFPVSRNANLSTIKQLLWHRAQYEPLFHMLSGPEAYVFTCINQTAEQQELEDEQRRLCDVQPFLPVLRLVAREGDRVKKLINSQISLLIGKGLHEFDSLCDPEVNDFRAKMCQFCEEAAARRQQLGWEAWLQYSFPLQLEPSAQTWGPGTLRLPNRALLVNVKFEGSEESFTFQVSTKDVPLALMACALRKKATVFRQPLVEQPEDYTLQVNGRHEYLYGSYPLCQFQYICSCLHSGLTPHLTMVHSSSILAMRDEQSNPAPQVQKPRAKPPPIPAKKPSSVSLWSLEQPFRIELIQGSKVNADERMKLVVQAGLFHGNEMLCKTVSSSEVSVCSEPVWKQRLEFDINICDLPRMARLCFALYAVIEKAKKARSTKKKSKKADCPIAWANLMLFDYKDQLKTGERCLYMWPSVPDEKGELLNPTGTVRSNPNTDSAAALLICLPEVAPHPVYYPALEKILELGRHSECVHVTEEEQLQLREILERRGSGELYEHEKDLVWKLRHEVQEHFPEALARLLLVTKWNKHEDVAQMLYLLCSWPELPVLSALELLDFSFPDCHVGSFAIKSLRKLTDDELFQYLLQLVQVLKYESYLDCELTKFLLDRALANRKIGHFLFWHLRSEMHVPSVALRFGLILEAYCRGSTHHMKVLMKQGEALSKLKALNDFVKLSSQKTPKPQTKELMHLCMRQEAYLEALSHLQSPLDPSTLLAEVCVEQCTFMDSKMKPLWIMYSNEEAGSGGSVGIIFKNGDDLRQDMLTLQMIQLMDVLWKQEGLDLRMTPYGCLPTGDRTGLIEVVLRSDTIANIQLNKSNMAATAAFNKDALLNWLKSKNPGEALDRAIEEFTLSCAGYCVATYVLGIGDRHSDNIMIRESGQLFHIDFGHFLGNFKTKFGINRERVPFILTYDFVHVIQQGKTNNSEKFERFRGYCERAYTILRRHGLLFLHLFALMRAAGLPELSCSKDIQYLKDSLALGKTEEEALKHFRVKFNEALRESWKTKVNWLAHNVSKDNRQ
# T4 sequence (P27986 whole entry partner): as the sequence (P27986 whole entry partner) above
# Outline: as §1
# VPS34 = molecular target: T5, VPS34 (Homo sapiens, UniProt Q8NEB9); assay: Human VPS34 enzyme assay (Adapta Universal Kinase Assay); conditions: for inhibition at 1.11 µM: 1 h, read-out: VPS34 % ihn; for VPS34 % ihn: at 1.11 μM
# T5 construct: GST (N); host or cells: SF9 insect cells (baculovirus)
# Experimental: VPS34 (accession number GB:BC033004) is cloned into pDEST20-Thombin as N-terminal GST tagged fusion proteins using the Gateway system (Invitrogen, catalog#11804-013). The sequences are verified before recombinant protein expression using the Baculovirus Expression System with Gateway® Technology.
# For expression VPS34 was infected at 1MOI in SF9 cells and harvested 72 hours post infection.
# For purification, VPS34 is purified by Glutathione Sepharose 4 Fast Flow (GE Healthcare #17-5132-03) followed by HiTrap Q (GE Healthcare #17-1153-01).
# 3) VPS34 is assayed using Adapta™ Universal Kinase Assay Kit (Invitrogen).
# 4) Human VPS34 enzyme assay method
# […] compounds in DMSO are added to wells of a 384 well microtitre plate (Greiner 780076). At room temperature: 5 ul VPS34 reaction buffer (Invitrogen Assay Buffer Q (diluted 1 in 5 with nanopure water) plus 2 mM DTT and 2 mM MnCl2) containing ATP (20 uM, Promega) and 200 uM PI-PS substrate (Invitrogen PV5122) is added followed immediately by 5 ul VPS34 reaction buffer (as above) containing VPS34 (5 nM, Millennium Protein Sciences Group) and the mixture is incubated with shaking at room temperature for 1 hour. Then 5 ul VPS34 stop-detect mix (as per Invitrogen Adapta Assay kit (PV5009) instructions (contains kinase quench buffer, TR-FRET buffer, Adapta Eu anti-ADP antibody and Alexa Fluor 647 ADP tracer)) is added to quench the reaction. The plates are then incubated for 30 minutes at room temperature with shaking and then read on a BMG PheraStar Plus reader.
# T1 sequence (P42336 whole entry): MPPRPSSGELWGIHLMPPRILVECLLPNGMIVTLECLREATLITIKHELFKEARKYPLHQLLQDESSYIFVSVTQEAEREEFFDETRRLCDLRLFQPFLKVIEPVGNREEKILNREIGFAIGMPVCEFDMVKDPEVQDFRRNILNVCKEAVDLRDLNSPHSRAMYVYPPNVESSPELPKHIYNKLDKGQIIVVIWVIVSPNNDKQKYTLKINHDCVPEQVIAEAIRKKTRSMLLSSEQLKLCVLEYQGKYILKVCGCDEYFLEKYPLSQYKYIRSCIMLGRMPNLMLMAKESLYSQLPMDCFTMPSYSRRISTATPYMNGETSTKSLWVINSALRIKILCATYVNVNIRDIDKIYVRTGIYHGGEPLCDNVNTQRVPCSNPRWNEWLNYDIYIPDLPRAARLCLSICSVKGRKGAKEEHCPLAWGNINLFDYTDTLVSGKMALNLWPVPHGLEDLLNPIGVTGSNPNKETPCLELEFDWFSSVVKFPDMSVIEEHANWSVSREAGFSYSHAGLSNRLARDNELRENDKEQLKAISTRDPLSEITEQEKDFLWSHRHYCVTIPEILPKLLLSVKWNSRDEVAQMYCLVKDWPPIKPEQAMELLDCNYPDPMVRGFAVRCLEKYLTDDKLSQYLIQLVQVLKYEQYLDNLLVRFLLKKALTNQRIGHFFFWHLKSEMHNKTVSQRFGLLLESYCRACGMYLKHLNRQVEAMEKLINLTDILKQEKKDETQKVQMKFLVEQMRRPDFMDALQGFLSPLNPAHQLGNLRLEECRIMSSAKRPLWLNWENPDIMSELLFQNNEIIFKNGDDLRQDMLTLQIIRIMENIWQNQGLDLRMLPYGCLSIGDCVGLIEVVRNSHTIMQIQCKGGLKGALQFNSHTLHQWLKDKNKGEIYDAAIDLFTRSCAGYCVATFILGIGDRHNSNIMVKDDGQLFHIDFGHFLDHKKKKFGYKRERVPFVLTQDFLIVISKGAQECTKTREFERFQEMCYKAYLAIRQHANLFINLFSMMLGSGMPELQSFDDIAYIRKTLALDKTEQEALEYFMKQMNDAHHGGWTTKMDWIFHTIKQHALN
# T1 sequence (P27986 whole entry partner): as the sequence (P27986 whole entry partner) above
SMILES,inhibition at 1.11 µM (PI3Kalpha),inhibition at 1.11 µM (PI3Kbeta),IC50 (PI3Kbeta),inhibition at 1.11 µM (PI3Kgamma),inhibition at 1.11 µM (PI3Kdelta),inhibition at 1.11 µM (VPS34),PI3Kgamma % inh (PI3Kgamma),VPS34 % ihn (VPS34),PI3Kalpha % inh (PI3Kalpha),PI3Kbeta % inh (PI3Kbeta),PI3Kdelta % inh (PI3Kdelta)
"O=S1(=O)NC=C(c2ccc(Cl)cc2)c2cc(-c3ccncc3)sc21 [Compound 27, 4-(4-chlorophenyl)-6-pyridin-4-yl-2H-thieno[3,2-e][1,2]thiazine 1,1-dioxide]",4.9%,98.3%,100 to 1000 nM,12.3%,46%,8.5%,,,,,
O=C1NCC(c2ccc(Cl)cc2)c2cc(-c3ccncc3)sc21 (centres unmarked) [Compound 30],6.3%,94.9%,< 100 nM,11.2%,36%,,,−0.200%,,,
O=C1NCCCC(c2ccc(Cl)cc2)c2cc(-c3ccncc3)sc21 (centres unmarked) [Compound 31],16.6%,83.3%,100 to 1000 nM,6.9%,50.5%,2%,,,,,
O=C1CC(c2ccc(Cl)cc2F)c2cc(N3CCOCC3)sc21 (centres unmarked) [Compound 117],26.6%,101%,,35.5%,81.2%,6.21%,,,,,
O=C1CCC(O)C(c2ccc(Cl)cc2)c2cc(-c3ccncc3)sc21 (centres unmarked) [Compound 129],,,,,,,3.89%,−2.80%,2.32%,59.86%,26.46%
"CC1(C)CNC(=O)c2sc(-c3ccncc3)cc2C1c1ccc(Cl)cc1 (centres unmarked) [Compound 140, 4-(4-chlorophenyl)-5,5-dimethyl-2-pyridin-4-yl-4,5,6,7-tetrahydro-8H-thieno[2,3-c]azepin-8-one]",8.99%,98.3%,,18.1%,67.9%,19.5%,,,,,
"C[Si](C)(C)CCOCN1CC(O)(c2ccc3ccccc3c2)c2cc(N3CCOCC3)sc2S1(=O)=O (centres unmarked) [Compound 144, 6-(morpholin-4-yl)-4-(2-naphthyl)-2-{[2-(trimethylsilyl)ethoxy]methyl}-3,4-dihydro-2H-thieno[3,2-e][1,2]thiazin-4-ol 1,1-dioxide]",41.6%,101%,,67.8%,111%,5.73%,,,,,
"CC1(C)C(=O)c2sc(-c3ccncc3)cc2C1c1ccc(Cl)cc1 (centres unmarked) [Compound 147, 4-(4-chlorophenyl)-5,5-dimethyl-2-(pyridin-4-yl)-4H-cyclopenta[b]thiophen-6(5H)-one]",3.15%,65.7%,,2.45%,9.91%,9.65%,,,,,
N#Cc1c(N2CCOCC2)sc2c1C(c1ccc(Cl)cc1)CNC2=O (centres unmarked) [Compound 149],46.1%,108%,,29.1%,80.9%,4.85%,,,,,
N#Cc1c(N2CCOCC2)sc2c1C(c1c(F)cc(Cl)cc1F)CCNC2=O (centres unmarked) [Compound 155],64.7%,113%,,42.6%,104%,11.6%,,,,,
O=C1NCC(c2ccc(Cl)cc2)c2cc(-c3ccncc3)sc21 (centres unmarked) [Compound 156],,,,,,,11.17%,−0.21%,6.34%,94.95%,36.03%
COc1cc(C2CC(=O)c3sc(N4CCOCC4)cc32)ccc1Cl (centres unmarked) [Compound 158],12.9%,108%,,65.3%,100%,5.41%,,,,,
CN1CC(c2ccc(Cl)cc2)c2cc(-c3ccncc3)sc2C1=O (centres unmarked) [Compound 164],-2.24%,76.8%,,5.01%,14%,8.39%,,,,,
O=C1CC(c2ccc(Cl)c(Cl)c2)c2cc(N3CCOCC3)sc21 (centres unmarked) [Compound 171],48.1%,106%,,64.4%,111%,16.8%,,,,,
O=C1NCCC(c2ccc(Cl)c(Cl)c2)c2nc(N3CCOCC3)sc21 (centres unmarked) [Compound 173],24.1%,103%,,41.5%,110%,41.8%,,,,,
"O=C1CC(c2ccc(Cl)cc2)c2cc(-c3ccncc3)sc2N1 (centres unmarked) [Compound 182, 4-(4-chlorophenyl)-2-(pyridin-4-yl)-4,5-dihydrothieno[2,3-b]pyridin-6(7H)-one]",2.99%,61.2%,,3.51%,48.5%,14%,,,,,
O=C1CC(c2ccc3ccccc3n2)c2cc(N3CCOCC3)sc21 (centres unmarked) [Compound 183],26.9%,90.4%,,20.6%,60.1%,9%,,,,,

# Second part, the compound after the results:
inhibition at 1.11 µM (PI3Kalpha),inhibition at 1.11 µM (PI3Kbeta),IC50 (PI3Kbeta),inhibition at 1.11 µM (PI3Kgamma),inhibition at 1.11 µM (PI3Kdelta),inhibition at 1.11 µM (VPS34),PI3Kgamma % inh (PI3Kgamma),VPS34 % ihn (VPS34),PI3Kalpha % inh (PI3Kalpha),PI3Kbeta % inh (PI3Kbeta),PI3Kdelta % inh (PI3Kdelta),SMILES
15.7%,105%,< 100 nM,,75%,,23.550%,8.600%,,,,"O=C1CC(c2ccc(Cl)cc2)c2cc(N3CCOCC3)sc21 (centres unmarked) [Compound 28, 4-(4-chlorophenyl)-2-morpholino-4H-cyclopenta[b]thiophen-6(5H)-one]"
22.6%,71.8%,,16.7%,44.5%,24.4%,,,,,,CN(C)C(=O)[C@@H]1NC(=O)c2sc(N3CCOCC3)cc2[C@H]1c1ccc(Cl)cc1 [Compound 125]
,,,,,,36.62%,26.74%,39.72%,98.08%,75.35%,NC(=O)[C@@H]1NC(=O)c2sc(N3CCOCC3)cc2[C@H]1c1ccc(Cl)cc1 [Compound 126]
,,,45.9%,87%,36.3%,,,18.03%,107.54%,,O=C1NCC(c2ccc(Cl)cc2)c2cc(N3CCOCC3)sc21 (centres unmarked) [Compound 128]
33%,93.8%,,32.2%,76.5%,9.44%,,,,,,"N#Cc1c(N2CCOCC2)sc2c1C(c1ccc(Cl)cc1)NC2=O (centres unmarked) [Compound 134, 4-(4-chlorophenyl)-2-(morpholin-4-yl)-6-oxo-5,6-dihydro-4H-thieno[2,3-c]pyrrole-3-carbonitrile]"
4.69%,77%,,6.82%,47.2%,15.1%,,,,,,"CN1CCC(c2ccc(Cl)cc2)c2cc(N3CCOCC3)sc2C1=O (centres unmarked) [Compound 141, 4-(4-chlorophenyl)-7-methyl-2-(morpholin-4-yl)-4,5,6,7-tetrahydro-8H-thieno[2,3-c]azepin-8-one]"
,,,,,,50.45%,−1.31%,18.36%,101.66%,88.59%,O=C1CC(c2ccc(Cl)cc2)c2cc(N3CCOCC3)sc21 (centres unmarked) [Compound 145]
12.1%,92.6%,,19.3%,59.3%,10.8%,,,,,,"CC1(C)C(=O)c2sc(N3CCOCC3)cc2C1c1ccc(Cl)cc1 (centres unmarked) [Compound 161, 4-(4-chlorophenyl)-5,5-dimethyl-2-morpholino-4H-cyclopenta[b]thiophen-6(5H)-one]"
13.9%,97.4%,,28.7%,87.3%,55.8%,,,,,,"O=C1NCCC(c2ccc(Cl)cc2)c2nc(N3CCOCC3)sc21 (centres unmarked) [Compound 180, 8-(4-chlorophenyl)-2-(morpholin-4-yl)-5,6,7,8-tetrahydro-4H-[1,3]thiazolo[5,4-c]azepin-4-one]"
